The target of assay [1] is human RBP4 (Homo sapiens (Human), UniProt P02753). Description: Binding assay by Retinol-RBP4-TTR ELISA. As to conditions: for IC50: retinol 50 nM, His-tagged human RBP4, biotinylated human TTR, read-out: human RBP4 binding inhibitory activity (IC50 nM); for inhibition at 10 µM: at 10 μM compound, read-out: human RBP4 binding inhibitory activity(% at 10 μM). Here is the method:
The action of the compound of the present invention to inhibit binding of RBP4 and retinol and TTR was evaluated using the Retinol-RBP4-TTR ELISA system shown below.
1F: Binding Assay by Retinol-RBP4-TTR ELISA
This ELISA system detects a complex of RBP4 and TTR based on a retinol-dependent binding of RBP4 to TTR.
His-tagged human RBP4 used was prepared in the above-mentioned 1C.
Biotinylate human TTR used was prepared in the above-mentioned 1E.
Streptavidin (20 μl) (10 μg/ml Streptavidin type II (Wako Pure Chemical Industries, Ltd.), 10 mM Tris-HCl (pH 7.5), 10 mM NaCl) was added to a 384 well black plate (Nunc MaxiSorp, Thermo Fisher Scientific Inc.), and the plate was subjected to centrifugation (1000 rpm, 1 min) and coated overnight at 4° C. The plate was washed twice with PBST (PBS, 0.05% Tween 20, 100 μl/well) and blocked with 25% Block Ace (Snow Brand Milk Products Co., Ltd., PBS, 100 μl/well). The plate was subjected to centrifugation (1000 rpm, 1 min) and incubated at room temperature for 4 hr or overnight at 4° C. The plate was washed twice with PBST (PBS, 0.05% Tween 20, 100 μl/well), and biotinylate human TTR (stock solution concentration 1.0 mg/ml) diluted 750-fold with PBST was added at 20 μl/well. The plate was subjected to centrifugation (1000 rpm, 1 min) and stood still at room temperature for 1.5 hr or overnight at 4° C. The plate was washed 3 times with PBST (100 μl/well), and His-tagged human RBP4 (stock solution concentration 0.96 mg/ml) diluted 4000-fold with a reaction buffer (50 mM Tris-HCl, 150 mM NaCl, 0.005% Tween 20, 1 mM DTT, 0.1% BSA) was added at 10 μl/well. The dilution series (8 doses from 10 mM, 200-fold concentration) of the compound was prepared with DMSO, and 1 μl of each was added to a reaction buffer (200 μl) containing retinol (50 nM) (Sigma-Aldrich Co.). A reaction buffer (200 μl) containing retinol and added with DMSO was used as a positive control, and reaction buffer (200 μl) free of retinol and added with DMSO was used as a negative control. Mixed solutions of retinol and the compound were added to the plate at 15 μl/well. The plate was stirred in a platemixer subjected to centrifugation (1000 rpm, 1 min) and reacted at room temperature for 2 hr. A 35% Block Ace solution diluted with the reaction buffer was added at 10 μl/well, centrifuged (1000 rpm, 1 min) and reacted at room temperature for 30 min. The plate was washed 3 times with PBST (100 μl/well) and SuperSignal ELISA Femto Maximum Sensitivity Substrate reagent (PIERCE, Thermo Fisher Scientific Inc.) was added at 30 μl/well, and the luminescence was measured by a platereader (Wallac).
The binding inhibitory activity of the compound was determined by 100×(positive control value-test compound value)/(positive control value-negative control value). The binding activity (IC50) was calculated from the binding inhibitory rate at each compound concentration using a graph drawing software, GraphPad Prism (GraphPad Software Inc.).
On the technique in general: In an ELISA, binding on a coated surface is turned into a signal by an enzyme label.

The target in assay [2] is RBP4 (Rattus norvegicus (Rat), UniProt P04916). As to the kind of experiment: Single administration test in Wistar fatty rats, plasma RBP4 by ELISA. The class given is in vivo. As to conditions: male Wistar fatty rats, 10 mg/kg oral single dose, mean±SD; for RBP4 (% of initial/Control) 0 hr: 0 hr (just before the administration); for RBP4 (% of initial/Control) 4 hr: 4 hr after administration; for RBP4 (% of initial/Control) 7 hr: 7 hr after administration; for RBP4 (% of initial/Control) 24 hr: 24 hr after administration. The method, then: The action of the compounds of the present invention to lower plasma RBP4 level was evaluated using the animal model shown below.
Male Wistar fatty rats (fa/fa) were bred in Takeda Pharmaceutical Company Limited and maintained on normal diet (CE2, CLAE Japan, Inc.) and tap water. Animals were housed in a temperature-controlled room adjusted to a 12-hour light/12-hour dark cycle beginning at 7:00 and 19:00, respectively. All procedures were conducted according to the experimental animal care use committee of Takeda Pharmaceutical Company.
(§1) Male 13-43-week-old Wistar fatty rats were divided into groups randomly. Compounds were suspended in 0.5% (w/v) methylcellulose in water and given orally to Wistar fatty rats at a dose of 10 mg/10 mL/kg of body weight (3-5 rats per group). Blood samples were obtained from tail vein with sodium heparin as an anticoagulant at time 0 hr (just before the administration), 4 hr, 7 hr, and 24 hr after the administration, followed by plasma separation by centrifugation. Plasma RBP4 levels were measured by enzyme-linked immunosorbent assay described in the following section.
(§2) Plasma samples were analyzed in duplicate for RBP4 by an enzyme-linked immunosorbent assay. Mouse recombinant RBP4 (Takeda Pharmaceutical Company Limited) was used as standards, and the assay range was 0.313-20 ng/ml. Samples were diluted 10,000-fold with phosphate-buffered saline (PBS) (Sigma) containing 10% (w/v) BlockAce (Dainippon Sumitomo Pharma Co., Ltd). Rabbit anti-RBP4 polyclonal antibody (100 μL/well of 50 μg/mL, Hokudo Co, Ltd) was incubated in a 96-well plate (Nalge Nunc International K.K.) for overnight at 4° C. Subsequently, the plates were washed with PBS-T (Wako Pure Chemical Industries, Ltd.) and blocked with PBS containing 25% BlockAce for 1 hr at room temperature. After another washing with PBS-T, samples and standards were applied to the well, and the plates were incubated for 2 hr at room temperature. After a washing the wells, peroxidase-labeled (Dojindo Laboratories) anti-RBP4 (100 μL/well) was added to the wells, and then the plates were incubated for 1 hr at room temperature. After a final washing with PBS-T, substrate solution 3,3,5,5-tetramethylbenzidine (Sigma) was added to the wells, and the plates were placed in the dark for 5-20 min at room temperature. The reaction was stopped with 0.5 M sulphuric acid and the optical density was measured with a spectrophotometer at 450 nm. The changes in plasma RBP4 levels were expressed as % of initial/Control. All data are presented as mean±SD.

Assay [3] concerns the target RBP4 (Mus musculus (Mouse), UniProt Q00724). Description: Single administration test in mice, plasma RBP4 by ELISA. The class given is in vivo. The conditions noted are these: male C57BL/6J or ICR mice, 50 mg/kg oral single dose, mean±SD; for RBP4 (% of initial/Control) 0 hr: 0 hr (just before the administration); for RBP4 (% of initial/Control) 4 hr: 4 hr after administration; for RBP4 (% of initial/Control) 7 hr: 7 hr after administration; for RBP4 (% of initial/Control) 24 hr: 24 hr after administration. The method, then:
The action of the compounds of the present invention to reduce plasma RBP4 level was evaluated using the animal model shown below.
Male C57BL/6J and ICR mice were purchased from Charles River (Japan) and maintained on a normal diet (CE2, CLAE Japan, Inc.) and tap water. Animals were housed in a temperature-controlled room adjusted to a 12-hour light/12-hour dark cycle beginning at 7:00 and 19:00, respectively. All procedures were conducted according to the experimental animal care use committee of Takeda Pharmaceutical Company.
as §1, with “Male 6-12-week-old C57BL/6J or ICR mice were housed individually and fed CE2 for 4-6 days. After acclimatization, mice” for “Male 13-43-week-old Wistar fatty rats”, “groups based on their body weight.” for “groups randomly.”, “to mice” for “to Wistar fatty rats”, “of 50” for “of 10”, “weight (three to five mice” for “weight (3-5 rats”, “from orbital” for “from tail”
as §2, with “Company)” for “Company Limited)”

Each structure is given as a SMILES string.

By IC50 is commonly meant the concentration that gives 50% inhibition. In the case of `CC(C)(C)c1ccccc1N1CCN(C(=O)CC(=O)O)CC1` [Example 9, 3-[4-(2-tert-Butylphenyl)piperazin-1-yl]-3-oxopropanoic acid], in assay [1], the IC50 worked out at 54 nM. Further, in assay [2], the “RBP4 (% of initial/Control) 0 hr” value is listed as 100.0 ± 8.5 % of initial/Control, the “RBP4 (% of initial/Control) 4 hr” value is 49.6 ± 1.3 % of initial/Control, the “RBP4 (% of initial/Control) 7 hr” value is 49.2 ± 1.9 % of initial/Control and the “RBP4 (% of initial/Control) 24 hr” value is recorded as 114.3 ± 6.0 % of initial/Control.

Consider `CC(C)(C)c1ccccc1N1CCN(C(=O)CCC(=O)NS(C)(=O)=O)CC1` [Example 55, 4-(4-(2-tert-Butylphenyl)piperazin-1-yl)-N-(methylsulfonyl)-4-oxobutanamide], for which the IC50 in assay [1] was 64 nM. Moreover, in assay [2], the “RBP4 (% of initial/Control) 0 hr” value is 100.0 ± 5.3 % of initial/Control, the “RBP4 (% of initial/Control) 4 hr” value is given as 36.8 ± 5.8 % of initial/Control, the “RBP4 (% of initial/Control) 7 hr” value is 31.6 ± 7.7 % of initial/Control and the “RBP4 (% of initial/Control) 24 hr” value is given as 54.4 ± 14.3 % of initial/Control.

`CC(C)(C)c1ccccc1N1CCN(C(=O)Cc2nnn[nH]2)CC1` [Example 58, 1-(4-(2-tert-Butylphenyl)piperazin-1-yl)-2-(1H-tetrazol-5-yl)ethanone]: in assay [1], the IC50 was 300 nM. Also, in assay [2], the “RBP4 (% of initial/Control) 0 hr” value was 100.0 ± 8.7 % of initial/Control, the “RBP4 (% of initial/Control) 4 hr” value was 76.2 ± 11 % of initial/Control, the “RBP4 (% of initial/Control) 7 hr” value is reported as 89.1 ± 15.4 % of initial/Control and the “RBP4 (% of initial/Control) 24 hr” value was 97.9 ± 10.4 % of initial/Control.

Consider `Cc1nc(C(=O)N2CCN(c3ccccc3C(C)(C)C)CC2)cn1CC(=O)O` [Example 205, (4-{[4-(2-tert-Butylphenyl)piperazin-1-yl]carbonyl}-2-methyl-1H-imidazol-1-yl)acetic acid], for which, in assay [3], the “RBP4 (% of initial/Control) 0 hr” value is recorded as 100.0 ± 18.9 % of initial/Control, the “RBP4 (% of initial/Control) 4 hr” value is recorded as 66.3 ± 5.7 % of initial/Control, the “RBP4 (% of initial/Control) 7 hr” value is reported as 75.0 ± 10.8 % of initial/Control and the “RBP4 (% of initial/Control) 24 hr” value was 125.7 ± 20.9 % of initial/Control. The inhibition at 10 µM in assay [1] worked out at 100%.

As to `CC(C)(C)c1cc(Cl)ccc1N1CCN(C(=O)CC(=O)O)CC1` [Example 207, 3-[4-(2-tert-Butyl-4-chlorophenyl)piperazin-1-yl]-3-oxopropanoic acid], in assay [3], the “RBP4 (% of initial/Control) 0 hr” value is 100.0 ± 27.4 % of initial/Control, the “RBP4 (% of initial/Control) 4 hr” value is listed as 43.1 ± 1.7 % of initial/Control, the “RBP4 (% of initial/Control) 7 hr” value is given as 37.6 ± 0.7 % of initial/Control and the “RBP4 (% of initial/Control) 24 hr” value is recorded as 52.0 ± 2.8 % of initial/Control. In addition, the inhibition at 10 µM in assay [1] stood at 100%.

Regarding `CC(C)(C)c1cc(Cl)ccc1N1CCN(C(=O)c2ccc(OCC(=O)O)cn2)CC1` [Example 210, [(6-{[4-(2-tert-Butyl-4-chlorophenyl)piperazin-1-yl]carbonyl}pyridin-3-yl)oxy]acetic acid], in assay [3], the “RBP4 (% of initial/Control) 0 hr” value is 100.0 ± 10.5 % of initial/Control, the “RBP4 (% of initial/Control) 4 hr” value is recorded as 55.3 ± 4.0 % of initial/Control, the “RBP4 (% of initial/Control) 7 hr” value is listed as 54.9 ± 8.8 % of initial/Control and the “RBP4 (% of initial/Control) 24 hr” value is given as 97.6 ± 24.5 % of initial/Control. The inhibition at 10 µM in assay [1] came out at 99%.

On to `CC(C)(C)c1ccccc1N1CCN(C(=O)c2cc(OCC(=O)O)no2)CC1` [Example 216, [(5-{[4-(2-tert-Butylphenyl)piperazin-1-yl]carbonyl}isoxazol-3-yl)oxy]acetic acid], for which, in assay [3], the “RBP4 (% of initial/Control) 0 hr” value was 100.0 ± 16.6 % of initial/Control, the “RBP4 (% of initial/Control) 4 hr” value was 43.4 ± 4.7 % of initial/Control, the “RBP4 (% of initial/Control) 7 hr” value was 36.9 ± 1.0 % of initial/Control and the “RBP4 (% of initial/Control) 24 hr” value is on record as 66.4 ± 28.1 % of initial/Control. Further, the inhibition at 10 µM in assay [1] came to 100%.

(Values after US8853215B2, “Derivatives of N-acyl-N′-phenylpiperazine useful (inter alia) for the prophylaxis or treatment of diabetes” (Takeda Pharmaceutical Company Limited, priority 2009, dated 2014).)
